Data taken from EP0314302A2, “Herbicidal o-carbomethoxy-sulfonylureas” (E.I. DU PONT DE NEMOURS AND COMPANY, priority 1987, dated 1989).

How the values were obtained:
Agropyron repens = experiment: Test 2 perennial weeds from rhizomes; format: in vivo; details: 0.5% v/v non-ionic surfactant, scale 0-100
Description: (§1) Rhizomes of Agropyron repens and Cirsium arvense were planted in 17.5-cm plastic pots and grown in the greenhouse for 5 months prior to herbicide application. Plants were 24 to 35 cm tall and releasing lateral buds at the time of treatment. Compound I was diluted in water containing 0.5% v/v non-ionic surfactant and applied to the plants. The degree of weed control was visually rated 36 days after application of the herbicide. Control ratings were based upon comparison to an untreated control using a scale of 0 to 100 where 0 indicated no effect and […] represented death of all foliar portions with no regrowth apparent.

Cirsium arvense = experiment: Test 2 perennial weeds from rhizomes; format: in vivo; details: 0.5% v/v non-ionic surfactant, scale 0-100
Description: as §1

Narrowleaf panicum = experiment: Test 5 sugarcane injury and weed control, postemergence; format: in vivo, Panicum maximum; details: scale 0-100
Description: Sugarcane (Saccharum spp.) cuttings which had been pre-sprouted were planted in 15-cm plastic pots. Narrowleaf panicum (Panicum maximum), large crabgrass (Digitaria sanguinalis), guineagrass (P. maximum) and itchgrass (Rottboellia exaltata) were seeded in individual 15-cm plastic pots.
The pots were treated postemergence when the plants had 3 to 4 leaves with 2 to 3 tillers with Compound I formulated in a non-phytotoxic carrier made up of acetone-humectant-water-surfactant (22:1:1:0.05 v/v). The degree of crop injury and weed control was visually rated 27 days after treatment (DAT). Plant injury ratings are based on the scale of 0 to 100 where 0 = no effect, 20 = minimal injury and 100 = complete control.

weed = experiment: Test 6 effect of surfactants, postemergence; format: in vivo; details: addition of a surfactant
Description: The object of this test was to evaluate the effect of surfactants and plant growth stage on the efficacy of the compound of this invention. Plastic windowsill pots were filled with planting medium and seeded with yellow nutsedge (Cyperus esculentus), large crabgrass (Digitaria sanguinalis), goosegrass (Elsusine indica), bermudagrass (Cynodon dactylon), broadleaf signalgrass (Brachiara platyphalla), smooth crabgrass (Digitaria ischaemum), guinea grass (Panicum maximum) and johnsongrass (Sorghum halapense). Coffee (Coffea spp) plants with 2 to 4 branches were included in one test.
Plants were treated postemergence with Compound I formulated with different surfactants or a non-phytotoxic carrier made up of acetone-humectant-water-surfactant.

Wild mustard = experiment: Test 7 postemergence; format: in vivo; details: scale 0-100
Groundsel = experiment: Test 7 postemergence; format: in vivo, Senecio spp; details: scale 0-100
Description: (§2) Individual 11.4-cm plastic pots filled with planting medium were seeded with rape, wild radish (Raphanus raphanistruna). tansy mustard (Descurainia pinnata), ball mustard (Neslia paniculata), black mustard (Brassica nigra), yellow mustard, brown mustard, lentils, safflower, flax, sunflower, peanut, vetch, alfalfa, field bean, pea, violet (Viola spp), Kochia (Kochia spp), Russian thistle (Salsola spp), Matricaria spp, groundsel (Senecio spp), shepherdspurse (Capsella bursa-pastoris), nightshade (Solanum spp), sowthistle (Sonchus spp), sugar beet, wheat, "Bonanza" barley and "Morex" barley, Kentucky bluegrass (Poa pratensis), red clover (Trifolium pratense), dandelion (Taraxacum spp) and buckhorn plantain (Plantago lanceolata).
(§3) Plants were treated postemergence with the compound formulated with a non-phytotoxic carrier. Plants were visually rated 18 days after treatment (DAT). Response ratings were based on the scale of 0 to 100 where 0 = no effect, 20 = minimal injury and 100 = complete control.

Buckhorn plantain = experiment: Test 7 postemergence; format: in vivo, Plantago lanceolata; details: scale 0-100
Description: as §2, §3

Boston fern = experiment: Test 9 postemergence; format: in vivo, Nephrolepis exalata; details: scale 0-100
Description: (§4) Plastic windowsill pots containing planting medium were seeded with bahiagrass, bindweed (Convolvulus spp), guinea grass (Panicum maximum), large crabgrass (Digitaria sanguinalis) and pigweed (Amaranthus spp). Individual 15-cm plastic pots contained sandbur (Cenchrus echinatus), Mikania cordata, Boston fern (Nephrolepis exalata), quackgrass (Agropyron repens), elephantgrass (Pennisetum purpureum) and sowthistle (Sonchus spp) plants.
(§5) Plants were treated postemergence with Compound I formulated in a non-phytotoxic solvent. Plants were visually rated 22 days after treatment (DAT). Injury and weed control ratings were based on the scale of 0 to 100 where 0 = no effect, 20 = minimal control and 100 = complete control.

Pigweed [1] = experiment: Test 9 postemergence; format: in vivo, Amaranthus spp; details: 16 g/ha, scale 0-100
Description: as §4, §5

Bindweed = experiment: Test 11 citrus pots, preemergence to the weeds; format: in vivo, Convolvulus spp.; details: Preemergence 32 g/ha; 0.25% X-77 surfactant; scale 0-100
Description: (§6) Budded citrus seedlings were planted in 30-liter plastic pots which were also seeded with sandbur, guineagrass, narrowleaf panicum, common ragweed, yellow nutsedge, purple nutsedge and bindweed. Compound I was applied preemergence and postemergence to the weeds. Treatments were sprayed to simulate the trunk-to-trunk herbicide application method used in some citrus groves. The compound was also applied postemergence to weeds grown in windowsill flats. The flats were filled with planting medium and seeded with morningglory (Ipomoea spp.). purple nutsedge (Cyperus rotundus), pigweed (Amaranthus spp.), bindweed (Convolvulus spp.), narrowleaf panicum (Panicum maximum), common ragweed (Ambrosia artemisiifolia), sandbur (Cenchrus echinatus), itchgrass (Rottboellia exaltata), johnsongrass (Sorghum halepense), guineagrass (Panicum maximum), smooth crabgrass (Digitaria ischaemum), broadleaf signalgrass (Brachiaria platyphylla), bermudagrass (Cynodon dactylon), goosegrass (Eleusine indica), large crabgrass (Digitaria sanguinalis) and yellow nutsedge (Cyperus esculentus).
(§7) The compound was formulated and sprayed with 0.25% X-77 surfactant in water. Plants were visually rated 21 and 29 days after treatment and compared with appropriate controls. Injury ratings were based on the scale of 0 to 100, where 0 indicates no effect, 20 indicates minimum effect and 100 indicates complete control. […]

Citrus = experiment: Test 11 citrus pots, postemergence to the weeds; format: in vivo; details: Postemergence 32 g/ha, 0.25% X-77 surfactant, scale 0-100
Description: as §6, §7

Pigweed [2] = experiment: Test 11 windowsill flats, postemergence; format: in vivo, Amaranthus spp.; details: Postemergence 32 g/ha, 0.25% X-77 surfactant, scale 0-100
Description: as §6, §7

Smooth crabgrass = experiment: Test 11 windowsill flats, postemergence; format: in vivo, Digitaria ischaemum; details: Postemergence 32 g/ha, 0.25% X-77 surfactant, scale 0-100
Description: as §6, §7

Lantana = experiment: Test 12 over-the-top application, postemergence; format: in vivo, Lantana camara; details: 26 days after treatment, scale 0-100
Description: The object of this test was to evaluate the safety of sour lemon to the over-the-top application of Compound I and control of lantana (Lantana camara) and trumpetcreeper (Campsis radicans). Plants were sprayed postemergence with Compound I formulated in a non-phytotoxic solvent. Treated plants were visually rated 26 days after treatment and compared with appropriate controls. Injury ratings were based on the scale of 0 to 100, where 0 indicates no effect, 20 indicates minimal effect and 100 indicates complete control.

Compound: COC(=O)c1cccnc1S(=O)(=O)NC(=O)Nc1nc(OC)cc(OC)n1 [Compound I, 2-[[(4,6-dimethoxypyrimidin-2-yl)aminocarbonyl]aminosulfonyl]-3-pyridinecarboxylic acid, methyl ester]
- Control ratings 36 DAT (Agropyron repens; 16 g/ha): 85
- Control ratings 36 DAT (Agropyron repens; 32 g/ha): 90
- Control ratings 36 DAT (Agropyron repens; 64 g/ha): 95
- Control ratings 36 DAT (Cirsium arvense; 16 g/ha): 40
- Control ratings 36 DAT (Cirsium arvense; 32 g/ha): 50
- Control ratings 36 DAT (Cirsium arvense; 64 g/ha): 50
- Plant Injury Rating 27 DAT (Narrowleaf panicum; 8 g/ha): 70
- Plant Injury Rating 27 DAT (Narrowleaf panicum; 16 g/ha): 100
- Plant Injury Rating 27 DAT (Narrowleaf panicum; 32 g/ha): 100
- Plant Injury Rating 27 DAT (Narrowleaf panicum; 64 g/ha): 100
- weed control (weed): could improve the weed control
- Plant Injury Rating 18 DAT (Wild mustard; 16 g/ha): 100
- Plant Injury Rating 18 DAT (Wild mustard; 32 g/ha): 100
- Plant Injury Rating 18 DAT (Groundsel; 16 g/ha): 100
- Plant Injury Rating 18 DAT (Groundsel; 32 g/ha): 100
- Plant Injury Rating 18 DAT (Buckhorn plantain; 16 g/ha): 30
- Plant Injury Rating 18 DAT (Buckhorn plantain; 32 g/ha): 50
- Plant Injury Rating 22 DAT (Boston fern; 8 g/ha): 40
- Plant Injury Rating 22 DAT (Boston fern; 16 g/ha): 50
- Plant Injury Rating 22 DAT (Boston fern; 32 g/ha): 80
- Plant Injury Rating 22 DAT (Pigweed [1]): 90
- Injury ratings (Bindweed): 90
- Injury ratings (Citrus): 0
- Injury ratings (Pigweed [2]): 100
- Injury ratings (Smooth crabgrass): 100
- Injury ratings (Lantana; 8 g/ha): 0
- Injury ratings (Lantana; 16 g/ha): 10
- Injury ratings (Lantana; 32 g/ha): 30
